From patent US10995052B2, “Biaromatic propynyl compounds, pharmaceutical and cosmetic compositions containing same, and uses thereof” (GALDERMA RESEARCH & DEVELOPMENT, priority 2016, dated 2021)

Tests used:
Assay in all cases: Transactivation test in HeLa cells (luciferase reporter), apparent Kd by Schild regression
Assay type in all cases: cell-based
[1] = target: T1, RAR gamma (Homo sapiens, UniProt P13631); conditions: stably transfected HeLa cells, versus reference antagonist, 18 hours incubation, read-out: RAR gamma Kdapp
T1 sequence (P13631 178-423 limits assumed): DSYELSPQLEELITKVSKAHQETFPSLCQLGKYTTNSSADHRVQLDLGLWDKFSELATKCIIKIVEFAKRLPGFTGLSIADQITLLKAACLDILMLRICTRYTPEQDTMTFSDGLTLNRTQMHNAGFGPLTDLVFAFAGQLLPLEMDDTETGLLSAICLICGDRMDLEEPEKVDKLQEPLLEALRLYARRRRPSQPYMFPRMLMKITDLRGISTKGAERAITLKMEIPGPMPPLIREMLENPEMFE
Experimental: (§1) Activation of receptors by an agonist (activator) in HeLa cells leads to the expression of a reporter gene, luciferase, which generates light in the presence of a substrate. Therefore the activation of receptors can be measured by quantifying the luminescence produced after incubation of the cells in the presence of a reference antagonist. The activator products displace the antagonist from its site, thus permitting the receptor to be activated. The activity is measured by quantifying the increase in light produced. This measurement determines the activating activity of the useful compound in the invention.
(§2) In this study, a constant is determined that represents the affinity of the molecule for the receptor. This value can fluctuate according to the basal activity and expression of the receptor; it is designated apparent Kd (KdApp). […]
(§3) Full agonist controls, also called 100% controls, (4-[2-(5,5,8,8 tetramethyl-5,6,7,8 tetrahydronaphthalene-2-yl)propenyl]-benzoic acid) and inverse agonist controls, also called 0% controls, (4-{(E)-3-[4-(4-tert-butyl-phenyl)-5,5,8,8-tetramethyl-5,6,7,8-tetrahydro-naphthalen-2-yl]-3-oxo-propenyl}-benzoic acid) are also measured.
(§4) These cross curves allow determining the AC50 (concentration at which 50% activation of the receptor is observed) of the reference ligand at different concentrations of the product to be tested. These AC50s are used to calculate the Schild regression by plotting a line conforming to the Schild equation (“Quantitation in receptor pharmacology” Terry P. Kenakin, Receptors and Channels, 2001, 7, 371-385).
(§5) In the case of an […], the AC50 is calculated by plotting the curve of the product at the concentration of the reference ligand giving 80% activation. The percentage of activation that corresponds to the maximum level of activity obtained is also measured. […]
(§6) The culture medium is removed by turning over and 100 μl of a 1:1 PBS (phosphate buffer solution)/luciferin mixture is added to each well. After 5 minutes, the plates are read by the luminescence reader.

[2] = target: T2, RAR alpha (Homo sapiens, UniProt P10276); conditions: stably transfected HeLa cells, versus reference antagonist, 18 hours incubation, read-out: RAR alpha Kdapp
T2 sequence (P10276 183-417 limits assumed): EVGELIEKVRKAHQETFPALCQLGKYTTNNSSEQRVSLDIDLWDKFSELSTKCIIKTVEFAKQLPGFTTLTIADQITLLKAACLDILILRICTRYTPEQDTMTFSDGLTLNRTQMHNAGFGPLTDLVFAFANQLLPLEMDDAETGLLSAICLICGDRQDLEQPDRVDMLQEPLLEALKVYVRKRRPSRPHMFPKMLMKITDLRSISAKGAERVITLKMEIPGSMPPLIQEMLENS
Experimental: as §1, §2, §3, §4, §5, §6

[3] = target: T3, RAR beta (Homo sapiens, UniProt P10826); conditions: stably transfected HeLa cells, versus reference antagonist, 18 hours incubation, read-out: RAR beta Kdapp
T3 sequence (P10826 183-417 limits assumed): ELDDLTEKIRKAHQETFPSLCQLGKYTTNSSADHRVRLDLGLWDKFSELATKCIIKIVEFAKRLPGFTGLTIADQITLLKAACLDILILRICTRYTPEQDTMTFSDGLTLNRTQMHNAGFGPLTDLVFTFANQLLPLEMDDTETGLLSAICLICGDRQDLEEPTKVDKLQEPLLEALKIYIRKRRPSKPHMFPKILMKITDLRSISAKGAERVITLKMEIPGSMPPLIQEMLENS
Experimental: as §1, §2, §3, §4, §5, §6

CC1(C)CCC(C)(C)c2cc(-c3cc(-c4ccc(C(=O)O)cc4)ccc3CCCO)ccc21 [Compound 1, 4′-(3-hydroxy-propyl)-3′-(5,5,8,8-tetramethyl-5,6,7,8-tetrahydro-naphthalen-2-yl)-biphenyl-4-carboxylic acid]
Kd [1]: 4 nM
Kd [2]: 120 nM
Kd [3]: 4 nM
